# Tests used:
# PP2A = conditions: literature; cited from earlier work
# PP1 = conditions: literature; cited from earlier work
# PP-2A = test: PP inhibition assay, PP-2A; assay type: biochemical; conditions: for IC50: read-out: in vitro inhibition (IC50) against PP-2A
# Procedure: (§1) IR spectra were measured on a Bruker EQUINOX 55/S FT-IR/NIR spectrophotometer (Ettlingen, DE). Optical rotations were determined on a Perkin-Elmer 241 instrument at the sodium D line (589 nm). High-resolution mass spectrometry (HRMS) analyses were acquired on an IonSpec HiRes MALDI FT mass spectrometer (Lake Forest, Calif.) for […] or on an Agilent 1100 series LC/MSD Trap SL for HRESIMS (Santa Clara, Calif.). NMR data were recorded on a Varian Unity Inova 400 or 500 MHz NMR spectrometer (Varian, Inc., Palo Alto, Calif.). ^1H and ^13C NMR chemical shifts were referenced to residual solvent signals: δH 7.26 ppm and […] for CDCl3. ^1H-^1H COSY, HMQC, HMBC, HETLOC, gHSQMBC, and gDQCOSY were performed using either standard Varian pulse sequences or literature pulse sequences (Uhrin et al., 1998; Williamson et al., 2000). High-performance liquid chromatography (HPLC) analysis was carried out on a Varian HPLC system equipped with ProStar 210 pumps and a photodiode detector. Mobile phases used were buffer A (H2O) and buffer B (CH3CN). Analytical and semipreparative HPLC columns used were Alltech Alltima C18 columns, 250×4.6 mm, 5 μm and 250×10 mm, 5 respectively. Cytotoxity assays and PP inhibition assays for TTN and related analogues were performed as previously described for compound TTM and related congeners (Ju et al., 2009). Medium components and all other chemical solvents and reagents were purchased from Fisher Scientific (Fairlawn, N.J.). Silica gel 60 RP-18 (230-400 mesh, EMD Chemical Inc., Gibbstown, N.J.) was used for standard benchtop column chromatography. Amberlite XAD-16 resin was purchased from Sigma.
# (§2) Compounds 3-7 were subjected to PP inhibition and cytotoxicity assays with 1 as a control (Ju et al., 2009). Assays focused specifically on the inhibition of PP-1 and PP-2A (Table 4), while cytotoxicity assays exploited the use of selected human cancer cell lines Du145, MCF7, and HCT-115 (Table 5).
# [1] = in vitro cytotoxicity assay, HCT-115; assay type: cell-based; conditions: HCT-115 cells; HCT-115 human cancer cell line
# Procedure: as §1, with “Medium components and all other chemical solvents and reagents were purchased from Fisher Scientific (Fairlawn, N.J.). Silica gel 60 RP-18 (230-400 mesh, EMD Chemical Inc., Gibbstown, N.J.) was used for standard benchtop column chromatography. Amberlite XAD-16 resin was purchased from Sigma.” left out
# [2] = in vitro cytotoxicity assay, Du145; assay type: cell-based; conditions: Du145 cells; Du145 human cancer cell line
# Procedure: as §1, with “Medium components and all other chemical solvents and reagents were purchased from Fisher Scientific (Fairlawn, N.J.). Silica gel 60 RP-18 (230-400 mesh, EMD Chemical Inc., Gibbstown, N.J.) was used for standard benchtop column chromatography. Amberlite XAD-16 resin was purchased from Sigma.” left out
# PP-1 [3] = system: T1, PP-1; test: PP inhibition assay, PP-1; assay type: biochemical; conditions: for PP-1 inhibition relative to TTN: less efficient / worse than TTN; for IC50: read-out: in vitro inhibition (IC50) against PP-1
# T1 construct: other: less efficient / worse than TTN
# Procedure: as §1, §2
# [4] = in vitro cytotoxicity assay, MCF7; assay type: cell-based; conditions: MCF7 cells; MCF7 human cancer cell line
# Procedure: as §1, with “Medium components and all other chemical solvents and reagents were purchased from Fisher Scientific (Fairlawn, N.J.). Silica gel 60 RP-18 (230-400 mesh, EMD Chemical Inc., Gibbstown, N.J.) was used for standard benchtop column chromatography. Amberlite XAD-16 resin was purchased from Sigma.” left out
# Du145, MCF7, and HCT-115 = test: cytotoxicity against selected human cancer cell lines; assay type: cell-based; conditions: Du145, MCF7, HCT-115
# Procedure: as §1
# as §2, with “5). […]” for “5).”
# activated T cells = conditions: literature (Shim et al., 2002); cited from earlier work
# PP-1 [5] = test: PP inhibition assay, PP-1; assay type: biochemical; conditions: PP-1 over PP-2A
# Procedure: as §1, §2
Molecule,IC50 (PP2A),IC50 (PP1),preference for PP1 inhibition relative to PP2A (PP1),PP-2A inhibition relative to TTN (PP-2A),IC50 (PP-2A),IC50 [1],IC50 [2],PP-1 inhibition relative to TTN (PP-1 [3]),IC50 (PP-1 [3]),IC50 [4],"cytotoxicity (in words) (Du145, MCF7, and HCT-115)",T cell proliferation inhibited at concentrations lower than those needed for maximal inhibition by cyclosporine A (activated T cells),PP-1 selectivity (PP-1 [5])
"CO[C@H]([C@H](O)CC(=O)[C@@H](C)[C@@H](O)CC[C@@H](C)[C@@H]1O[C@]2(CC[C@@H](C)[C@H](CC[C@H](C)C(C)=O)O2)CC[C@@H]1C)[C@H](OC(=O)C[C@@H](O)C1=C(C)C(=O)OC1=O)C(C)C [TTM, tautomycin]",22 to 32 nM,22 to 32 nM,slight preference for PP1,,,,,,,,,,
CCC(C=CC(=O)O)=CC(O)CC(C)CC(C)CCC(O)C(C)C(=O)CC(O)C(C)C(C)OC(=O)CC(O)C1=C(C)C(=O)OC1=O [TTN D-3 (6)],,,,about the same potency as TTN,800 ± 60 nM,16000 ± 3000 nM,14000 ± 3000 nM,approximately one order of magnitude,210 ± 30 nM,11000 ± 3000 nM,,,
CCC(C=CC(=O)O)=CC(=O)CC(C)CC(C)CCC(O)C(C)C(=O)CC(O)C(C)C(C)OC(=O)CC(O)C1=C(C)C(=O)OC1=O [TTN D-4 (7)],,,,about the same potency as TTN,920 ± 40 nM,18000 ± 3000 nM,13000 ± 4000 nM,approximately one order of magnitude,,17000 ± 3000 nM,,,
CCC(/C=C/C(=O)O)=C\C(O)C[C@H](C)C[C@@H](C)CC[C@H](O)[C@H](C)C(=O)C[C@@H](O)[C@H](C)[C@@H](C)OC(=O)C[C@@H](O)C1=C(C)C(=O)OC1=O (stereo partly drawn) [TTN D-2 (5)],,,,about two orders of magnitude worse,44000 ± 100 nM,,,approximately three orders of magnitude worse,9800 ± 100 nM,,inactive,,
CCC(/C=C/C(=O)O)=C\CC[C@H](C)C[C@@H](C)CC[C@H](O)[C@H](C)C(=O)C[C@@H](O)[C@H](C)[C@@H](C)OC(=O)C[C@@H](O)C1=C(C)C(=O)OC1=O [TTN D-1 (4)],,,,about the same potency as TTN,520 ± 50 nM,,,approximately one order of magnitude,130 ± 20 nM,,inactive,,
CC/C(=C\CC[C@H](C)C[C@@H](C)CC[C@H](O)[C@H](C)C(=O)C[C@@H](O)[C@H](C)[C@@H](C)OC(=O)C[C@@H](O)C1=C(C)C(=O)OC1=O)C(O)CC(=O)O (stereo partly shown) [TTN F-1 (3)],,,,about the same potency as TTN,640 ± 80 nM,,,approximately one order of magnitude,170 ± 10 nM,,inactive,,
"Tautomycetin [TTN (1), reference compound]",62 nM,1.6 nM,,,400 ± 40 nM,,,,15 ± 0.0008 nM,,,100 fold,about 27 fold

# — patent US8580977B2 (priority 2010, dated 2013)
